Measurements taken from patent US4323550A, “Halogenohydrates of N,N-disubstituted derivatives of piperazine having anticariogenic properties” (priority 1976, dated 1982).

What was measured:
[1] = Penetration of fluorine 18 into dental enamel after topical application (Muhlemann biopsy); parameters: species or system children
From the text: The anticariogenic activity of the difluorohydrate of N,N'-di(hydroxy-ethyl) piperazine has been evidenced by comparison with sodium fluoride known for its cariopreventive topical properties. A comparative study has been made of the penetration into the dental enamel of the fluorine contained in the molecule according to the invention and of the fluorine contained in sodium fluoride.
For this comparison the difluorohydrate of N,N'-di(hydroxy-ethyl) piperazine was marked at the fluorine 18, by isotopic exchange by dissolving some crystals of the product according to the invention in a solution of pure fluorine 18 without entrainer. The same was done for the sodium fluoride.
The study of the penetration of the fluorine into the enamel was made on several teeth to compare the behavior of the product of the invention and of sodium fluoride in supplying fluorine and in the penetration of the latter into the deepest layers of the dental tissue.
The tests were performed on 30 premolar teeth taken from normal children 9 to 11 years old. Eighteen teeth were treated by topical application of the radioactive solutions of the difluoro-hydrate of N,N'-di(hydroxy-ethyl) piperazine or of NaF adjusted to pH=3.5; the other 12 were treated with the same solutions adjusted to a pH of 7.4.
(§1) The radioactive solutions are obtained by dissolving 69 mg of the difluorohydrate and 81.3 mg of NaF, respectively, in 1 and 3 ml of fluorine 18 solution without entrainer. Thus solutions titering 1.23% fluorine are obtained.
(§2) As the difluorohydrate solution is already at pH=3.5, it is sufficient to acidify the NaF solution by addition of about 0.2 ml hydrochloric acid 6 M, to 3 ml of the radioactive solution.
In this case, the difluorohydrate's nature of organic salt can be preserved and its solution neutralized at 1.23% of fluorine in 1 ml by addition of about 110 mg of its N,N'-di(hydroxyethyl) piperazine base.
For the experimentation one determines two enamel plagues on each tooth. For this, one applies on the crowns, separated from each other by 2 or 3 mm, two round disks of a diameter of 3 mm cut out from adhesive tape. The crown is then covered with a layer of impermeable varnish. When the varnish is dry, the patches of adhesive tape are removed, thus bearing the two zones of enamel to be treated.
The spot application of the fluorinated solution is done by means of a sponge imbibed with 0.5 ml of the solution. This sponge is inserted in a polyethylene tube to limit the surface of contact between tooth and sponge to the circumference of the enamel zone treated.
The sampling of the enamel is done by Muhlemann's biopsy technique: A patch of blotting paper impregnated with 4 microliters of perchloric acid 2 M is applied on the trated enamel for 30 seconds. The enamel is dried with a second patch of blotting paper. It is on these patches which contain the dissolved enamel that we measure the radioactivity.
There are given in Table I all the results relating to the acid treatment, in Table II all the results relating to the treatment at neutral pH. The fluorine values are those obtained by measuring the radioactivity of the samples.
The columns […] and N2 represent the mass of fluorine measured on the second biopsy.
We have marked R1 and R1 and R2 the ratios G1 /G2 and N1 /N2, and R3 the ratio. [formula] R1 and R2 permitting to compare the quantities of fluorine at the same depth. R3 permits comparing the accumulation of fluorine in the tooth.

in vivo = format: in vivo; conditions: in vivo; rat, oral; Lichfield and Wilcoxon
Description: (§3) By way of example there are described below the comparative tests made on difluorohydrate of N,N'-di(hydroxyethyl) piperazine and on fluorohydrate of hexadecylamine or "ELMEX 242".
(§4) The acute toxidity was studies in rats and in mice.
(§5) The animals came from a homogeneous breed. The mice weighed between 19 and 21 g and the rats weighed from 120 to 140 g. The mice were grouped in lots of 10 and the rats in lots of 8.
(§6) The administrations took place orally at a volume of 0.5 ml per 20 g of mouse and 1 ml per 100 g of rat. The LD50 was determined by the method of Lichfield and Wilcoxon.
(§7) As regards the difluorohydrate of N,N'-di(hydroxyethyl) piperazine, the administered solution was prepared by diluting the mother solution to 65.4%, the dilutions being made after having weighed this solution. The administered dose is expressed by weight, taking account of the indicated strength of this solution.
(§8) For the solid "ELMEX 242" an aqueous suspension was prepared with the aid of solubilizing agents (e.g. Tween-polyoxyethylene sorbitan monolaurate). A very thick suspension is then obtained which tends to foam heavily, is difficult to get into the esophageal sound, and the determination of its volume is rendered difficult by the foam.
(§9) The results obtained with the "ELMEX" are therefore rather approximate.

rats = assay: in vivo; format: in vivo; conditions: rat; for Deaths: oral
Description: as §3, §4, §5, §6, §7, §8, §9

[2] = pH of the difluorohydrate solution; format: physicochemical; conditions: solution titering 1.23% fluorine
Description: as §1, §2

Hygroscopicity = format: physicochemical; conditions: crystals
[3] = Acute oral toxicity in mice; format: in vivo; conditions: in vivo, mouse, read-out: dose up to which no symptom occurs
Description: as §3, §4, §5, §6, §7, §8, §9

In the case of `OCCN1CCN(CCO)CC1` [DIFLUOROHYDRATE OF N,N'-DI(HYDROXY-ETHYL) PIPERAZINE], the “cases with R1 less than 1” value ([1]; acid medium, 18 teeth) is reported as 16 cases, the “cases with R3 between 1 and 1.7” value ([1]; acid medium, 18 teeth) is reported as 8 cases and the “cases with R3 greater than 1.7” value ([1]; acid medium, 18 teeth) is reported as 4 cases. For the same compound, the “cases with R3 less than 1” value ([1]; acid medium, 18 teeth) was 5 cases, the “mean value of R3” value ([1]; acid medium, 18 teeth, standard deviation 0.6) was 1.5 and the “cases with R1 greater than 1” value ([1]; neutral medium, 12 teeth) was 10 cases. For the same compound, the “cases with R3 between 1 and 1.7” value ([1]; neutral medium, 12 teeth) was 7 cases, the “cases with R3 greater than 1.7” value ([1]; neutral medium, 12 teeth) was 2 cases and the “cases with R3 less than 1” value ([1]; neutral medium, 12 teeth) was 3 cases. For the same compound, the “mean value of R1” value ([1]; neutral medium, 12 teeth) was 3.0, the “average of R3” value ([1]; neutral medium, 12 teeth, standard deviation 0.4) was 1.2 and the “average fluorine sampled in the two biopsies, acid pH compared with neutral pH” value ([1]; pH 3.5 versus pH 7.4) was 2.6. For the same compound, the “anticariogenic action compared with sodium fluoride” value ([1]; same pH conditions) was “effects comparable to those of sodium fluoride”, the LD50 at 240 h (in vivo) was 790 mg/kg and the symptoms / behavior (rats; in vivo, po) was “Some diarrhea and some trembling appear”. The Deaths (rats; 250 mg/kg, D + 1, 8 per lot) was 0, the Deaths (rats; 250 mg/kg, D + 2, 8 per lot) was 0 and the Deaths (rats; 250 mg/kg, D + 5, 8 per lot) was 0. For the same compound, the Deaths (rats; 250 mg/kg, D + 10, 8 per lot) was 0, the Deaths (rats; 500 mg/kg, D + 1, 8 per lot) was 0 and the Deaths (rats; 500 mg/kg, D + 2, 8 per lot) was 0. It also gave a Deaths (rats; 500 mg/kg, D + 5, 8 per lot) of 0, a Deaths (rats; 500 mg/kg, D + 10, 8 per lot) of 0 and a Deaths (rats; 750 mg/kg, D + 1, 8 per lot) of 1. The Deaths (rats; 750 mg/kg, D + 2, 8 per lot) was 3, the Deaths (rats; 750 mg/kg, D + 5, 8 per lot) was 4 and the Deaths (rats; 750 mg/kg, D + 10, 8 per lot) was 4. For the same compound, the Deaths (rats; 1000 mg/kg, D + 1, 8 per lot) was 2, the Deaths (rats; 1000 mg/kg, D + 2, 8 per lot) was 5 and the Deaths (rats; 1000 mg/kg, D + 5, 8 per lot) was 6. It also gave a Deaths (rats; 1000 mg/kg, D + 10, 8 per lot) of 6, a Deaths (rats; 1250 mg/kg, D + 1, 8 per lot) of 5 and a Deaths (rats; 1250 mg/kg, D + 2, 8 per lot) of 7. For the same compound, the Deaths (rats; 1250 mg/kg, D + 5, 8 per lot) was 8, the Deaths (rats; 1250 mg/kg, D + 10, 8 per lot) was 8 and the “pH of the solution” value [2] was 3.5. For the same compound, the hygroscopicity (Hygroscopicity) was “very hygroscopic”, the hygroscopicity (Hygroscopicity; listed as difluorohydrate) was “particularly hygroscopic” and the NOAEL at 240 h [3] was ≥ 400 mg/kg.
